This note sets out measurements from patent publication US20030207924A1, “Compounds that modulate PPAR activity and methods of preparation” (priority 2002, published 2003).

Where two headings read alike, the source gives them in different places.

The target in one assay is T1, hPPARβ chimeric receptor (Homo sapiens, UniProt Q03181).
T1 construct: "expression plasmids encoding hPPARα, hPPARβ or mPPARγ chimeric receptors"
T1 sequence (Q03181 171-441 limits assumed): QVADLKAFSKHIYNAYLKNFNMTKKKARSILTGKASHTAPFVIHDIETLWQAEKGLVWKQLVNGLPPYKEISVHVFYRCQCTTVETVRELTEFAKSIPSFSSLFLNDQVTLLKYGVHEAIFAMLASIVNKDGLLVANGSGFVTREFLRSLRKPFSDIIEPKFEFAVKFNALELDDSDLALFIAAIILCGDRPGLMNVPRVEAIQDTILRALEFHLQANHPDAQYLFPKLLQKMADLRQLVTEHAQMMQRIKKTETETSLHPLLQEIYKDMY
The experiment in a line: Transient transfection assay in HepG2 cells, Gal4-hPPARβ chimeric receptor, luciferase reporter (Test A). The format is cell-based. Here is the method: (§1) 1. Test A. Transient Transfections Assay Using the HepG2 Hepatoma Cell Line.
(§2) HepG2 cells were transiently transfected with an expression plasmids encoding hPPARα, hPPARβ or mPPARγ chimeric receptors and a reporter containing the yeast upstream activating sequence (UAS) upstream of the viral E1B promoter controlling a luciferase reporter gene. In addition, the plasmid pRSVβ-gal was used to control for transfection efficiency. HepG2 cells were grown in DMEM supplemented with 10% FBS and […] non-essential amino acid. On the first day, cells were split into 100 mm dishes at 2.5×10^6/dish and incubated overnight at 37° C./5% CO2. On the second day the cells were transiently transfected with plasmid DNA encoding a chimeric receptor, the luciferase reporter gene; and β-gal. For each 100 mm dish, 15 μg of lucifease reporter (PG5E1b) DNA, 15 μg of Gal4-PPAR chimeric receptor DNA, and 1.5 μg of β-gal plasmid DNA were mixed with 1.4 ml of opti-MEM in the tube. 28 μl of LipoFectamine-2000 reagent was added to 1.4 ml of opti-MEM in the tube, and incubate for 5 min at RT. The diluted Lipofectamine-2000 reagent was combined with the DNA mixture, and incubate for 20 min at RT. After fresh medium was added to each 100 mm dish of cells, 2.8 ml of Lipofectamine2000-DNA mixture was added dropwise to the 100 mm dish containing 14 ml of medium, and incubate 37° C. overnight. On day three cells were trypsinized off the 100 mm dishes and re-plated on 96 well plates. Cells were plated at 2.5×10^4 cells per well in 150 μl of media and 50 μl of compound diluted by media was added. The test compounds added were in the range from 50 μM to 50 pM. After addition of compounds, the plates were incubated at 37° C. for 24 hours. Subsequently cells were washed with once with 100 μl of PBS, lysed, and processed for measuring luciferase and β-gal activity using Dual-Light luciferase kit from Tropix®, according to the manufacturer's recommendations, on an EG&G Bethold MicroLumat LB96P luminometer. EC50 values were obtained using the GraphPad Prism™ program.
For orientation: Reporter assays use an easily measured gene product as a stand-in for the process of interest.

In the next assay the target is T2, hPPARα chimeric receptor (Homo sapiens, UniProt Q07869).
T2 construct: "expression plasmids encoding hPPARα, hPPARβ or mPPARγ chimeric receptors"
T2 sequence (Q07869 200-468 limits assumed): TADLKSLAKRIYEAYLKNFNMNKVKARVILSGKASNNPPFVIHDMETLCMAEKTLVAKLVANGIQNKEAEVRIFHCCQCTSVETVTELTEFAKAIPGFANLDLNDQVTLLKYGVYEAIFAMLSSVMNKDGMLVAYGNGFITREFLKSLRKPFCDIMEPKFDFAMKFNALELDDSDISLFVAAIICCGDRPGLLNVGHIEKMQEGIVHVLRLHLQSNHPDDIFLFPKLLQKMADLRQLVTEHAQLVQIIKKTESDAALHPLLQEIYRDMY
The assay can be described thus: Transient transfection assay in HepG2 cells, Gal4-hPPARα chimeric receptor, luciferase reporter (Test A). The format is cell-based. Here is the method:
as §1
as §2, with “program. […] Accordingly, the compounds of the present invention should find considerable therapeutic applications for hypercholesterolemia and hyperlipidemia.” for “program.”

Setting [1] is: HepG2 cells, hPPARα chimeric receptor, luciferase reporter, 24 hours, read-out: EC50-α (Hep G2-hAlpha EC50).

As a reminder, the EC50 is the concentration at which the effect is half-maximal.

For `Cc1nc(-c2ccc(C(F)(F)F)cc2)sc1CSc1ccc(C2(C(=O)O)CC2)cc1` [Example 13, 1-{4-[4-Methyl-2-(4-trifluoromethyl-phenyl)-thiazol-5-ylmethylsulfanyl]-phenyl}-cyclopropanecarboxylic acid], the values for the EC50 at hPPARβ chimeric receptor and on hPPARα chimeric receptor (setting [1]) were 0.0476 µM and 1.1 µM, respectively.

Regarding `COc1cc(SCc2sc(-c3ccc(C(F)(F)F)cc3)nc2C)c(C)cc1OCC(=O)O` [Example 6, {2-Methoxy-5-methyl-4-[4-methyl-2-(4-trifluoromethyl-phenyl)-thiazol-5-ylmethylsulfanyl]-phenoxy}-acetic acid], the EC50 at hPPARβ chimeric receptor is 1.24 µM; on hPPARα chimeric receptor (setting [1]), 1.39 µM.

Take `COCc1cc(OCC(=O)O)c(C)cc1SCc1sc(-c2ccc(C(F)(F)F)cc2)nc1C` [Example 32, 2-[5-(methoxymethyl)-2-methyl-4-({4-methyl-2-[4-(trifluoromethyl)phenyl](1,3-thiazol-5-yl)}methylthio)phenoxy]acetic acid]: the half-maximal effective concentration (EC50) on hPPARβ chimeric receptor was found to be 0.649 µM; on hPPARα chimeric receptor, 0.625 µM.

For the molecule `Cc1nc(-c2ccc(C(F)(F)F)cc2)sc1CSc1ccc(CC(C(=O)O)n2cccc2)cc1` (centres unmarked) [Example 24, 3-{4-[4-Methtyl-2-(4-trifluoromethyl-phenyl)-thiazol-5-ylmethylsulfanyl]-phenyl}-2-pyrrol-1-yl-propionic acid], at hPPARβ chimeric receptor (HepG2 cells, hPPARβ chimeric receptor, luciferase reporter, 24 hours), the “EC50-β (Hep G2-hBeta EC50)” value amounted to 2000 µM. The EC50 on hPPARα chimeric receptor (setting [1]) was 2000 µM.

For `Cc1cc(SCc2sc(-c3ccc(C(F)(F)F)cc3)nc2C)c(C)cc1OCC(=O)O` [Example 1, {2,5-Dimethyl-4-[4-methyl-2-(4-trifluoromethyl-phenyl)-thiazol-5-ylmethylsulfanyl]-phenoxy}-acetic acid], the EC50 on hPPARβ chimeric receptor came to 0.0144 µM; at hPPARα chimeric receptor (setting [1]) it was 0.042 µM.

With `COc1cc(OC)c(SCc2sc(-c3ccc(C(F)(F)F)cc3)nc2C)cc1CCC(=O)O` [Example 19, 3-{2,4-Dimethoxy-5-[4-methyl-2-(4-trifluoromethyl-phenyl)-thiazol-5-ylmethylsulfanyl]-phenyl}-propionic acid], the EC50 on hPPARβ chimeric receptor was 1.12 µM; on hPPARα chimeric receptor (setting [1]) it was 1.54 µM.

With `COc1cc(OCC(=O)O)cc(C)c1SCc1sc(-c2ccc(C(F)(F)F)cc2)nc1C` [Example 8, {3-Methoxy-5-methyl-4-[4-methyl-2-(4-trifluoromethyl-phenyl)-thiazol-5-ylmethylsulfanyl]-phenoxy}-acetic acid], the concentration for a half-maximal effect (EC50) at hPPARβ chimeric receptor came out at 0.0453 µM; at hPPARα chimeric receptor (setting [1]), 0.84 µM.
